According to patent US12691115B2, “Methods for treatment of obesity, atherosclerosis, and thrombosis” (Marshall University Research Corporation, priority 2019, dated 2026):
Entries after “also recorded” stand apart in the source; their conditions may differ. Where a name gives a salt, the structure may show the parent alone.

Key:
[1] = cited from earlier work
platelets [2] = settings: cited from earlier work
WT mice [3] = test: FeCl3 thrombosis model, bolus injection via jugular vein catheter 5 minutes after thrombus initiation; format: in vivo, mouse
Experimental: (§1) Murine carotid artery thrombosis model and tail bleeding assay. Detailed ferric chloride (FeCl3) induced carotid artery thrombosis model has been described before. Vessel injury was induced by 7.5% FeCl3 solution to the carotid artery for 1 minute. […] The endpoints were set as follows: 1) blood flow has ceased for >30 seconds; or 2) occlusion is not seen after 30 minutes of FeCl3 injury. In this case, 30 minutes was assigned to that mouse for the statistical analysis. In some experiments, a jugular vein catheter prepared with P-10 tubing was placed for drug administration after 5 minutes of thrombus initiation. Thrombus formation was continually monitored using the endpoints mentioned above. Tail bleeding assay was either conducted on mice immediately after the thrombosis study or on mice that were not used for the in vivo thrombosis study.

WT mice [4] = test: 7.5% FeCl3 induced carotid artery thrombosis model, drug given before injury; format: in vivo, mouse; settings: for lowest effective dose with significant antithrombotic effect: gavage for one week; for lowest dose in inhibiting mouse thrombosis: in vivo
Experimental: as §1, with “before.” for “before. Vessel injury was induced by 7.5% FeCl3 solution to the carotid artery for 1 minute.”, “In this case, 30 minutes was assigned to that mouse for the statistical analysis.” left out, “study. […] Tail bleeding assay was conducted on these mice immediately after the thrombosis study.” for “study.”

WT mice [5] = settings: mouse, in vivo; for mice considered to have bleeding side effects: male, 1 week
Experimental: as §1, with “before.” for “before. Vessel injury was induced by 7.5% FeCl3 solution to the carotid artery for 1 minute.”, “In this case, 30 minutes was assigned to that mouse for the statistical analysis.” left out, “study. […] Tail bleeding assay was conducted on these mice immediately after the thrombosis study.” for “study.”

[6] = as component of Lonsurf (TAS-102); no systemic bleeding observed; cited from earlier work
AKT = test: ADP-induced AKT phosphorylation in platelets (immunoblot); format: cell-based, mouse; settings: 50 μM TPI, 2.5 μM ADP, especially the second phase
Experimental: Evaluation of platelet signaling activation. Platelets in PRP were stimulated with 2.5 μM ADP for 0, 1, 3, and 5 minutes, then lysed with radioimmunoprecipitation assay (RIPA) buffer containing proteinase/phosphatase inhibitor cocktail. The lysates were subsequently used for AKT activation immunoblotting assays. ADP-stimulated p-selectin expression was analyzed by flow cytometry.

C57Bl6 wild type mice = test: Western diet induced body weight gain; format: in vivo, mouse; settings: gavage 1 mg/kg/day, western diet TD.88137, vs saline, hydrochloride
Description: To determine if inhibition of TYMP could attenuate or inhibit obesity in vivo, C57Bl6 wild type mice were fed with a western diet (TD.88137, 42% calories from fat), started from 6 to 8 […], to facilitate their weight gain. […] Mice received the same volume of saline feeding as a control. Body weight gain was monitored weekly, and data were presented as mean of the accumulated weight gain from each mice at each week. N=3 in the saline-feeding group, and 2 in the TPI-feeding group.

platelets [7] = test: Cellix flow chamber-based platelet adhesion and aggregation assay; format: cell-based, mouse
Experimental: Cellix flow chamber-based platelet adhesion and aggregation assay. Cellix flow chambers were coated with collagen 10 μg/mL in PBS. Whole blood was drawn from mouse IVC using 0.109 M sodium citrate as an anticoagulant, stained with Rhodamine 6G, and then used for the flow chamber mediated adhesion and aggregation assay. Some of the whole blood was treated with or without TPI before it was perfused into the chamber.

TYMP and Lyn = target: T1, TYMP and Lyn (Homo sapiens, UniProt P19971); test: Association of TYMP and Lyn (pull-down, Cos-7 cells); format: binding; settings: TPI treatment
T1 construct: overexpressing full length human TYMP and Lyn in Cos-7 cells; expressed in transfected cells; host or cells: COS-7
T1 sequence (P19971 11-482): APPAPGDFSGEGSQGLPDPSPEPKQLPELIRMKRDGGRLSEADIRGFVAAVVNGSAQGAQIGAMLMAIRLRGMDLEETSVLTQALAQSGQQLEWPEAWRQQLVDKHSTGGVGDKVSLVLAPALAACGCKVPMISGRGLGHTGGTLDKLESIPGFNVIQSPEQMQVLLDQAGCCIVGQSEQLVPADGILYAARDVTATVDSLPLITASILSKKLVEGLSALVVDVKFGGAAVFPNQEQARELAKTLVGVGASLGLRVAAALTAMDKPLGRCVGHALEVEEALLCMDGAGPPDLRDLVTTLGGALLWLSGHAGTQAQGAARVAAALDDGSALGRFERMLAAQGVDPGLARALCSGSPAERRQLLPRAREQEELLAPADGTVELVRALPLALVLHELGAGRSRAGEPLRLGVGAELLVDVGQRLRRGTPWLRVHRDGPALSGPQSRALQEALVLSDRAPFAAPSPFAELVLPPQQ
Description: Generation of fusion proteins to determine that TYMP binds to LYN through the SH3 binding domain. Human SH3 domain nucleotides (hLynSH3, amino acids 63-123) were amplified by PCR and cloned into a mammalian expression vector pEBG (Addgene, plasmid #22227) with an N-terminal glutathione S-transferase (GST) affinity tag (pEBG-GST-hLynSH3). A pCDNA6B/his-hTYMP plasmid vector was previously constructed. pEBG-GST-hLynSH3 and pCDNA6B/his-hTYMP plasmids were co-transfected into COS-7 cells, lysed in a Pierce™ IP Lysis Buffer (ThermoFisher Scientific), and used for GST pull down assay. Eluates were used for Western blot assay to confirm the presence of TYMP.
pEGFP-N1-human Lyn-GFP and pCDNA6B/his-hTYMP plasmids were also co-transfected into the COS-7 cells. TYMP was pulled down using immobilized Ni-NTA on magnetic sepharose beads (GE Healthcare Life Sciences) for His-tagged protein purification. His-hTYMP eluates were used for western blot assay for Lyn.

Apoe^−/− mice = test: Apoe−/− mice on WD gavage fed with TPI: liver fat accumulation and atherosclerotic lesions (Oil Red O); format: in vivo, mouse; settings: gavage 60 μg/Kg/day, 4 weeks, vs saline
Description: As mentioned above, TYMP enhances platelet activation in vitro and promotes thrombosis in vivo, making TYMP a potential target for antithrombotic therapy. […] Age-matched Apoe^−/− mice on WD fed with saline were used as controls.

platelets in PRP = test: Mouse platelet aggregation assay (PRP); format: cell-based
Description: Mouse platelet aggregation assay. […] Platelet-rich plasma (PRP) was used for platelet aggregation assay. […] Same volume of vehicle (DMSO or saline)-treated platelets was used as controls.

[8] = system: WT mice fed a western diet; test: FeCl3 thrombosis model under hyperlipidemia (western diet); format: in vivo, mouse; settings: TPI 1 mg/kg for one week, WD 4 weeks
Description: Examination of the effect of TYMP inhibition on thrombosis under hyperlipidemia. WT mice were fed a western diet (WD, TD.88137) for a total of 4 weeks. […] These mice were then subjected to the thrombosis study using the 7.5% FeCl3 induced thrombosis model.

[9] = bolus 17 and 1 mg/kg TPI, 5 min after injury

## Oc1ncnc2c1ncn2[C@@H]1O[C@H](COC(c2ccccc2)(c2ccccc2)c2ccccc2)[C@@H](O)[C@H]1O [KIN59, 5′-O-tritylinosine]
[1]
  thrombosis in vivo: dramatically inhibited
Platelets [2]
  platelet activation in vitro: dramatically inhibited

## tPA: tissue plasminogen activator (Activase), FDA-approved clot-busting drug
WT mice [3]; bolus 1 mg/kg, 5 min after vascular injury
  lysis of established thrombi: effectively lysed
WT mice [3]; bolus 5 min after injury
  lowest effective dose on thrombolysis: 0.25 to 0.5 mg/kg
WT mice [3]; tPA 0.25 and 0.125 mg/kg
  thrombolytic action: no thrombolytic action

## COC(=O)[C@H](c1ccccc1Cl)N1CCc2sccc2C1 [clopidogrel]
WT mice [4]
  lowest effective dose with significant antithrombotic effect: 2.5 mg/kg/day
  lowest dose in inhibiting mouse thrombosis: 2.5 mg/kg
WT mice [5]
  mice considered to have bleeding side effects: 75%

## CC(=O)Oc1ccccc1C(=O)O [aspirin]
WT mice [4]; gavage aspirin 0.5 mg/kg/day for 7 days
  inhibiting thrombosis: no effect
WT mice [4]
  lowest effective dose with significant antithrombotic effect: 1 mg/kg/day
  lowest dose in inhibiting mouse thrombosis: 1 mg/kg
WT mice [5]
  mice considered to have bleeding side effects: 50%

## [H]/N=C1\CCCN1Cc1[nH]c(=O)[nH]c(=O)c1Cl [TPI, tipiracil hydrochloride]
WT mice [4]; gavage 60 μg/kg/day for 3 days
  in vivo thrombosis: significantly inhibited
WT mice [4]; intraperitoneal 17 mg/kg once per day for three days
  occlusive thrombus formation in the carotid arteries: completely inhibited
WT mice [4]; intravenous injection 1.7 and 0.17 mg/kg, vs saline
  thrombosis: significantly inhibited
WT mice [4]; without significantly affecting hemostasis
  effective dose (anti-thrombotic): ≤ 60 µg/kg/day
[6]
  systemic safety in clinical trials: systemically safe
AKT
  ADP-stimulated AKT phosphorylation: dramatically reduced
C57Bl6 wild type mice
  WD-induced body weight gain: reduced; also recorded: decreases
WT mice [3]; TPI 50 μg/kg intravenous injection
  occlusive thrombus formation: did not inhibit
WT mice [3]; [9]
  blood flow cessation: no blood flow cessation
  thrombosis formation (time): significantly prolonged
WT mice [3]; bolus 5 min after injury
  lowest effective dose on inhibiting the growth of the on-site thrombus: 0.05 to 0.1 mg/kg
Platelets [7]; 50 μM TPI, WT whole blood, shear 65 dyn/cm^2, 3 minutes
  platelet aggregation to the collagen-coated surface: significantly reduced
Platelets [7]; TYMP inhibition, collagen-coated flow chamber
  platelet adhesion to collagen: does not affect
WT mice [5]
  mice considered to have bleeding side effects: 28.5%
  frequency of bleeding compared with clopidogrel-treated mice: significantly decreased
TYMP and Lyn
  association of TYMP and Lyn: disrupted
Apoe^−/− mice
  atherosclerotic plaque areas formation in aortic root: attenuated
  lipid accumulation in livers: attenuated
Platelets in PRP; 50 μM TPI, 2.5 μM ADP, Tymp−/− platelets
  ADP-induced aggregation of Tymp−/− platelets: had no effect
Platelets in PRP; 50 μM TPI, 2.5 μM ADP, WT platelets
  ADP-induced WT platelet aggregation: attenuated
Platelets in PRP; 50 μM TPI, 2 minutes pretreatment
  CRP-induced platelet aggregation: completely blocked
Platelets in PRP; WT platelets, different concentrations of TPI, collagen 1 μg/ml
  collagen-induced platelet aggregation: dose-dependently inhibited
Platelets in PRP; dose-dependently at 250, 125 and 62.5 μM, 0.5 μg/ml CRP
  CRP-induced platelet shape change: inhibited
[8]
  hyperlipidemia-enhanced thrombosis: dramatically reduced
